From ChEMBL document CHEMBL1131377, “Novel 5-(3-aryl-2-propynyl)-5-(arylsulfonyl)thiazolidine-2,4-diones as antihyperglycemic agents” (1998)

Tests used:
Type in all cases: functional
[1] = system: Mus musculus; assay: Percent decrease in glucose of db/db mouse was measured at 100 mg/kg/day dosage.
[2] = system: Mus musculus; assay: Percent decrease in glucose of db/db mouse was measured at 20 mg/kg/day dosage
[3] = system: Mus musculus; assay: % decrease in insulin of 4 day ob/ob mouse was measured at 50 mg/kg/day dosage.
[4] = system: Mus musculus; assay: % decrease in glucose of 4 day ob/ob mouse was measured at 50 mg/kg/day dosage.
[5] = system: Mus musculus; assay: % decrease in glucose of 4 day ob/ob mouse was measured at 100 mg/kg/day dosage.
[6] = system: Mus musculus; assay: % decrease in insulin of 4 day ob/ob mouse was measured at 100 mg/kg/day dosage.

Compound | Decrease [1] [%] | Decrease [2] [%] | also measured
Cc1ccc(S(=O)(=O)C2(CC#Cc3ccccc3Cl)SC(=O)NC2=O)cc1 (configuration not stated) | 30 |  | 
O=C1NC(=O)C(CC#Cc2ccc(C(F)(F)F)cc2)(S(=O)(=O)c2ccc(F)cc2)S1 (configuration not stated) | 52 | <15 | 
O=C1NC(=O)C(CC#Cc2ccc(F)cc2)(S(=O)(=O)c2ccc(Cl)cc2)S1 (configuration not stated) | 54 | <15 | 
O=C1NC(=O)C(CC#Cc2ccc(Br)cc2)(S(=O)(=O)c2ccccc2)S1 (configuration not stated) | 53 | <15 | 
Cc1cccc(S(=O)(=O)C2(CC#Cc3ccccc3)SC(=O)NC2=O)c1 (configuration not stated) | 48 | <15 | 
Cc1ccc(C#CCC2(S(=O)(=O)c3ccc(C)cc3)SC(=O)NC2=O)cc1 (configuration not stated) | 28 |  | 
Cc1ccc(SC2(CC#Cc3ccc(Cl)cc3)SC(=O)NC2=O)cc1 (configuration not stated) | 27 |  | 
O=C1NC(=O)C(CC#Cc2ccc(F)cc2)(S(=O)(=O)c2ccc(F)cc2)S1 (configuration not stated) | 57 | 25 | 
O=C1NC(=O)C(CC#Cc2ccc(C(F)(F)F)cc2)(S(=O)(=O)c2ccccc2)S1 (configuration not stated) | 59 | <15 | 
O=C1NC(=O)C(CC#Cc2ccc(Cl)cc2)(S(=O)(=O)c2ccccn2)S1 (configuration not stated) | 55 | 38 | 
O=C1NC(=O)C(CC#Cc2ccc(Br)cc2)(S(=O)(=O)c2ccc(F)cc2)S1 (configuration not stated) | 70 | <15 | 
O=C1NC(=O)C(CC#Cc2ccc(Cl)cc2)(Sc2ccccc2)S1 (configuration not stated) | <15 |  | 
O=C1NC(=O)C(CC#Cc2ccc(C(F)(F)F)cc2)(S(=O)(=O)c2ccc(Cl)cc2)S1 (configuration not stated) | 37 |  | 
O=C1NC(=O)C(CC#Cc2cc(C(F)(F)F)cc(C(F)(F)F)c2)(S(=O)(=O)c2ccccn2)S1 (configuration not stated) |  | <15 | 
COc1ccc(C#CCC2(S(=O)(=O)c3ccccc3)SC(=O)NC2=O)cc1 (configuration not stated) | 25 |  | 
O=C1NC(=O)C(CC#Cc2cccc(Cl)c2)(S(=O)(=O)c2ccccc2)S1 (configuration not stated) | <15 |  | 
Cc1ccc(S(=O)(=O)C2(CC#Cc3ccc(F)cc3)SC(=O)NC2=O)cc1 (configuration not stated) | 65 | <15 | Decrease [3]: 30%; Decrease [4]: 30%
O=C1NC(=O)C(CC#Cc2ccccc2)(S(=O)(=O)c2ccccc2)S1 (configuration not stated) | <15 |  | 
O=C1NC(=O)C(CC#Cc2ccccc2)(S(=O)(=O)c2ccc(Cl)cc2)S1 (configuration not stated) | 36 |  | 

Compound | Decrease [1] [%] | Decrease [2] [%] | also measured
O=C1NC(=O)C(CC#Cc2ccc(F)c(F)c2)(S(=O)(=O)c2ccc(F)cc2)S1 (configuration not stated) | 33 |  | 
Cc1ccc(S(=O)(=O)C2(CC#Cc3ccc(C(F)(F)F)cc3)SC(=O)NC2=O)cc1 (configuration not stated) | 36 | <15 | 
O=C1NC(=O)C(CC#Cc2ccc(Cl)cc2)(S(=O)(=O)c2ccc(Br)cc2)S1 (configuration not stated) | 69 | <15 | Decrease [3]: 69%; Decrease [4]: 36%
O=C1NC(=O)C(CC#Cc2ccccc2)(S(=O)(=O)c2ccc(F)cc2)S1 (configuration not stated) | 26 |  | 
O=C1NC(=O)C(CC#Cc2ccc(Cl)cc2)(S(=O)(=O)c2ccc(F)cc2)S1 (configuration not stated) | 79 | 31 | 
O=C1NC(=O)C(CC#Cc2ccc(Cl)cc2)(S(=O)(=O)c2ccc3ccccc3n2)S1 (configuration not stated) |  | <15 | 
COc1ccc(S(=O)(=O)C2(CC#Cc3ccccc3)SC(=O)NC2=O)cc1 (configuration not stated) | 21 |  | 
Cc1cccc(S(=O)(=O)C2(CC#Cc3ccc(Cl)cc3)SC(=O)NC2=O)c1 (configuration not stated) | 33 |  | 
Cc1ccc(S(=O)(=O)C2(CC#Cc3ccccc3)SC(=O)NC2=O)cc1 (configuration not stated) | 43 | 23 | 
O=C1NC(=O)C(S(=O)(=O)c2ccc3ccccc3c2)S1 (configuration not stated) | 21 |  | 
Cc1ccc(S(=O)(=O)C2(CC#Cc3cc(C(F)(F)F)cc(C(F)(F)F)c3)SC(=O)NC2=O)cc1 (configuration not stated) | 22 |  | 
O=C1NC(=O)C(CC#Cc2ccc(Cl)cc2)(S(=O)(=O)c2ccc(Cl)cc2)S1 (configuration not stated) | 70 | 18 | Decrease [3]: 56%; Decrease [4]: 47%
Cc1cccc(S(=O)(=O)C2(CC#Cc3ccc(Cl)cc3)SC(=O)NC2=O)n1 (configuration not stated) | <15 | <15 | 
O=C1NC(=O)C(CC#Cc2ccc(F)cc2)(S(=O)(=O)c2ccccn2)S1 (configuration not stated) | 67 | 36 | Decrease [3]: 54%; Decrease [4]: 44%
O=C1NC(=O)C(CC#Cc2ccccc2Cl)(S(=O)(=O)c2ccccc2)S1 (configuration not stated) | <15 |  | 
O=C1NC(=O)C(CC#Cc2ccccc2)(S(=O)(=O)c2ccc3ccccc3c2)S1 (configuration not stated) | 24 |  | 
O=C1NC(=O)C(CC#Cc2ccc(Cl)cc2)(Sc2ccc3ccccc3n2)S1 (configuration not stated) | <15 |  | 
O=C1NC(=O)C(CC#Cc2cc(C(F)(F)F)cc(C(F)(F)F)c2)(S(=O)(=O)c2ccccc2)S1 (configuration not stated) | 54 | 21 | 
O=C1NC(=O)C(CC#Cc2ccc(OC(F)(F)F)cc2)(S(=O)(=O)c2ccc(F)cc2)S1 (configuration not stated) | 56 | <15 | 

Compound | Decrease [1] [%] | Decrease [2] [%] | also measured
CSc1ccc(C#CCC2(S(=O)(=O)c3ccc(F)cc3)SC(=O)NC2=O)cc1 (configuration not stated) | <15 |  | 
O=C1NC(=O)C(CC#Cc2ccc(F)cc2)(S(=O)(=O)c2ccccc2)S1 (configuration not stated) | 58 | <15 | 
O=C1NC(=O)C(CC#Cc2ccc(Cl)cc2)(S(=O)(=O)c2ccc3ccccc3c2)S1 (configuration not stated) | 20 |  | 
O=C1NC(=O)C(CC#Cc2ccc(F)cc2)(S(=O)(=O)c2ccc(Br)cc2)S1 (configuration not stated) | 64 | <15 | 
COc1ccc(S(=O)(=O)C2(CC#Cc3ccc(Cl)cc3)SC(=O)NC2=O)cc1 (configuration not stated) | 45 | <15 | 
COc1ccc(C#CCC2(S(=O)(=O)c3ccc(C)cc3)SC(=O)NC2=O)cc1 (configuration not stated) | <15 |  | 
O=C1NC(=O)C(CC#Cc2ccc(Cl)cc2)(S(=O)(=O)c2ccccc2)S1 (configuration not stated) | 52 | 21 | Decrease [5]: 40%; Decrease [6]: 65%
Cc1cccc(SC2(CC#Cc3ccc(Cl)cc3)SC(=O)NC2=O)n1 (configuration not stated) | <15 |  | 
O=C1NC(=O)C(CC#Cc2ccc(Cl)cc2)(Sc2ccc(Cl)cc2)S1 (configuration not stated) | 24 |  | 
Cc1ccc(S(=O)(=O)C2(CC#Cc3ccc(Cl)cc3)SC(=O)NC2=O)cc1 (configuration not stated) | 35 |  | 
O=C1NC(=O)C(CC#Cc2ccc(Br)cc2)(S(=O)(=O)c2ccc(Cl)cc2)S1 (configuration not stated) | 68 | <15 | 
Cc1ccc(S(=O)(=O)C2(CC#Cc3ccc(Br)cc3)SC(=O)NC2=O)cc1 (configuration not stated) | 51 | 23 | 
Cc1ccc(S(=O)(=O)C2(CC#Cc3cccc(Cl)c3)SC(=O)NC2=O)cc1 (configuration not stated) | 30 |  | 
Cc1ccc(C#CCC2(S(=O)(=O)c3ccccc3)SC(=O)NC2=O)cc1 (configuration not stated) | <15 |  | 
O=C1NC(=O)C(CC#Cc2ccccc2)(S(=O)(=O)c2ccc(Br)cc2)S1 (configuration not stated) | 43 | <15 | 
O=C1NC(=O)C(CC#Cc2ccc(Cl)cc2)(Sc2ccccn2)S1 (configuration not stated) | <15 |  | 
O=C1NC(=O)C(CC#Cc2ccc(Cl)cc2)(Sc2ccc(F)cc2)S1 (configuration not stated) | <15 |  | 
CC1(COc2ccc(CC3SC(=O)NC3=O)cc2)CCCCC1 (configuration not stated) [CIGLITAZONE] | 32 | <15 | Decrease [5]: 43%; Decrease [6]: 39%
Cc1ccc(S(=O)(=O)C(CC#Cc2ccc(Cl)cc2)C(=O)O)cc1 (configuration not stated) [TIBEGLISENE] | 30 |  | Decrease [3]: 54%; Decrease [4]: <15%
